The results in this text go back to US6297267A, “4,5-diaryloxazole compounds” (Fujisawa Pharmaceutical Co., Ltd., priority 1997, dated 2001).

In the test the test system is Human Platelet. Kind of test: Inhibition of Human Platelet Aggregation Induced by ADP. It is filed as cell-based. The settings on record: 2 min; Test Compound 1.0 × 10^-7 M; human platelet rich plasma; ADP 2.5 μM; 2 minutes at 37° C. Here is the method:
Inhibition of Human Platelet Aggregation Induced by ADP
Human blood was collected from healthy volunteers and mixed with 1/10 volume of 3.8% sodium citrate solution, pH 7.4. The citrate blood was centrifuged at 150×g for 10 minutes and the platelet rich plasma (PRP) was removed. The remaining blood was centrifuged for a further 10 minutes at 1500×g to prepare the platelet poor plasma (PPP), which was used as a reference for platelet aggregation. Aggregation studies were carried out using HEMATRACER 801 (NBS, Japan), a 8 channel aggregometer. 25 μl of a solution of Test compound in Tris-acetate buffer pH 7.4 and 225 μl of PRP were mixed and stirred at 1000 rpm for 2 minutes at 37° C. Aggregation was induced by ADP (adenosin 5'-diphosphate) solution at the final concentration of 2.5 μM.

The inhibition is the share of the control response that was lost under treatment. `O=C(O)COc1cccc(C[C@@H]2CCCC3OC32c2nc(-c3ccccc3)c(-c3ccccc3)o2)c1` (stereo partly drawn) [(3)]: the inhibition at 0.1 µM was over 90%. As to `O=C(O)COc1cccc(CC2(O)CCCC=C2c2nc(-c3ccccc3)c(-c3ccccc3)o2)c1` (stereo not drawn) [(1)], the inhibition at 0.1 µM was over 90%.

`O=C(O)COc1cccc(C[C@@H]2CCC(O)C=C2c2nc(-c3ccccc3)c(-c3ccccc3)o2)c1` (stereo partly drawn) [(2)] yielded an inhibition at 0.1 µM of over 90%.
